Converted amounts (≈) assume the structure as drawn.
Key:
[1] = Cytotoxicity against african green monkey Vero cells after 72 hrs by MTT assay; type: cell-based; settings: chlorocebus sabaeus
[2] = system: Mycobacterium tuberculosis; assay: Antitubercular activity against Mycobacterium tuberculosis H37Rv measured on day 4 by microplate Alamar blue assay; type: functional; settings: 96 h
[3] = Selectivity index, ratio of CC50 for african green monkey Vero cells to MIC for Mycobacterium tuberculosis H37Rv; type: toxicity, cell-based; settings: read-out: Selectivity Index

Cn1c2ccccc2c2cc(C(=O)N3CCN(c4ccccc4Cl)CC3)nc(-c3ccccc3)c21
CC50 at 72 h [1]: > 50 µg/mL
MIC90 [2]: 5 µM (≈ 2.4 µg/mL)
selectivity ratio [3]: > 20.8

Cn1c2ccccc2c2cc(C(=O)N3CCN(c4ccc(F)cc4)CC3)nc(-c3ccccc3)c21
CC50 at 72 h [1]: > 50 µg/mL
MIC90 [2]: 5.6 µM (≈ 2.6 µg/mL)
selectivity ratio [3]: > 19.2

CO[C@H]1/C=C/O[C@@]2(C)Oc3c(C)c(O)c4c(O)c(c(/C=N/N5CCN(C)CC5)c(O)c4c3C2=O)NC(=O)/C(C)=C\C=C\[C@H](C)[C@H](O)[C@@H](C)[C@@H](O)[C@@H](C)[C@H](OC(C)=O)[C@@H]1C [RIFAMPIN]
CC50 at 72 h [1]: > 150 µg/mL
MIC90 [2]: 0.13 µM (≈ 0.107 µg/mL)
selectivity ratio [3]: > 1360

Cn1c2ccccc2c2cc(C(=O)N3CCN(c4cccc(Cl)c4)CC3)nc(-c3ccccc3)c21
CC50 at 72 h [1]: > 50 µg/mL
MIC90 [2]: 79.6 µM (≈ 38.3 µg/mL)
selectivity ratio [3]: > 1.3

Cc1ccc(N2CCN(C(=O)c3cc4c5ccccc5n(C)c4c(-c4ccccc4)n3)CC2)cc1
CC50 at 72 h [1]: > 50 µg/mL
MIC90 [2]: 9.3 µM (≈ 4.28 µg/mL)
selectivity ratio [3]: > 11.6

Cn1c2ccccc2c2cc(C(=O)N3CCN(Cc4ccccc4)CC3)nc(-c3ccccc3)c21
CC50 at 72 h [1]: > 50 µg/mL
MIC90 [2]: 8.9 µM (≈ 4.1 µg/mL)
selectivity ratio [3]: > 12.2

Cn1c2ccccc2c2cc(C(=O)N3CCN(c4ccc(Cl)cc4)CC3)nc(-c3ccccc3)c21
CC50 at 72 h [1]: > 50 µg/mL
MIC90 [2]: 83.3 µM (≈ 40.1 µg/mL)
selectivity ratio [3]: > 1.3

Cn1c2ccccc2c2cc(C(=O)N3CCN(c4cccc(Cl)c4Cl)CC3)nc(-c3ccccc3)c21
CC50 at 72 h [1]: > 50 µg/mL
MIC90 [2]: 2.9 µM (≈ 1.49 µg/mL)
selectivity ratio [3]: > 33.3

Cc1ccccc1N1CCN(C(=O)c2cc3c4ccccc4n(C)c3c(-c3ccccc3)n2)CC1
CC50 at 72 h [1]: > 50 µg/mL
MIC90 [2]: 5.2 µM (≈ 2.4 µg/mL)
selectivity ratio [3]: > 20.8

Cn1c2ccccc2c2cc(C(=O)N3CCN(c4ccccn4)CC3)nc(-c3ccccc3)c21
CC50 at 72 h [1]: > 50 µg/mL
MIC90 [2]: 9.8 µM (≈ 4.39 µg/mL)
selectivity ratio [3]: > 11.4

Cn1c2ccccc2c2cc(C(=O)N3CCN(c4ccccc4F)CC3)nc(-c3ccccc3)c21
CC50 at 72 h [1]: > 50 µg/mL
MIC90 [2]: 5.8 µM (≈ 2.69 µg/mL)
selectivity ratio [3]: > 18.5

COc1ccccc1N1CCN(C(=O)c2cc3c4ccccc4n(C)c3c(-c3ccccc3)n2)CC1
CC50 at 72 h [1]: > 50 µg/mL
MIC90 [2]: 3.5 µM (≈ 1.67 µg/mL)
selectivity ratio [3]: > 25

Cn1c2ccccc2c2cc(C(=O)N3CCN(c4ccccc4)CC3)nc(-c3ccccc3)c21
CC50 at 72 h [1]: > 50 µg/mL
MIC90 [2]: 27.4 µM (≈ 12.2 µg/mL)
selectivity ratio [3]: > 4.1

COc1ccc(N2CCN(C(=O)c3cc4c5ccccc5n(C)c4c(-c4ccccc4)n3)CC2)cc1
CC50 at 72 h [1]: > 50 µg/mL
MIC90 [2]: 10.1 µM (≈ 4.81 µg/mL)
selectivity ratio [3]: > 8.6

Cn1c2ccccc2c2cc(C(=O)N3CCN(c4ccncc4)CC3)nc(-c3ccccc3)c21
CC50 at 72 h [1]: 18 µg/mL (≈ 40.2 µM)
MIC90 [2]: 9.8 µM (≈ 4.39 µg/mL)
selectivity ratio [3]: 4.5
